Test results from ChEMBL document CHEMBL3739353, “Arthroamide, a Cyclic Depsipeptide with Quorum Sensing Inhibitory Activity from Arthrobacter sp” (J Nat Prod, 2015).
Active and inactive are the calls of the source. No cut-off for these calls is given here.

Columns and labels:
Micrococcus luteus = experiment: Antimicrobial activity against Micrococcus luteus at 100 ug/ml; format: functional, organism-based
Escherichia coli = experiment: Antimicrobial activity against Escherichia coli at 100 ug/ml; format: functional, organism-based
Candida albicans = experiment: Antimicrobial activity against Candida albicans at 100 ug/ml; format: functional, organism-based
[1] = biological target: T1, Accessory gene regulator protein A (Staphylococcus aureus) (UniProt P0A0I7); experiment: Inhibition of agr-mediated quorum sensing in Staphylococcus aureus at 5 to 10 uM after 5 hrs by luminescence analysis
T1 sequence (whole entry): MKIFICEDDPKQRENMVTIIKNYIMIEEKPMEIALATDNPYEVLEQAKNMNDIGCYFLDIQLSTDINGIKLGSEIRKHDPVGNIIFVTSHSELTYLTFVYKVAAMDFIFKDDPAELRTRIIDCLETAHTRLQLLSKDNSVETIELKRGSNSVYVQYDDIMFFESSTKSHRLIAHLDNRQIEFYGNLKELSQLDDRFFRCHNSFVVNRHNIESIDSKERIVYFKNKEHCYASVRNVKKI

| SMILES | Activity (Micrococcus luteus) | Activity (Escherichia coli) | Activity (Candida albicans) | inhibition [1] [%] |
| --- | --- | --- | --- | --- |
| CC(C)[C@@H]1NC(=O)C[C@H](/C=C/c2ccccc2)OC(=O)[C@H](C(C)C)NC(=O)[C@H](C(C)C)NC(=O)[C@@H](C)NC1=O | inactive | inactive | inactive | 10 |
| CC[C@H](C)[C@@H]1NC(=O)[C@@H](C)NC(=O)[C@H](C(C)C)NC(=O)C[C@H](/C=C/c2ccccc2)OC(=O)[C@H](C(C)C)NC1=O | – | – | – | 10 |
